Common to all, as to format: cell-based
Experiment [1] deals with T1, AQP1 (Rattus norvegicus, UniProt P29975).
T1 sequence (P29975 1-269): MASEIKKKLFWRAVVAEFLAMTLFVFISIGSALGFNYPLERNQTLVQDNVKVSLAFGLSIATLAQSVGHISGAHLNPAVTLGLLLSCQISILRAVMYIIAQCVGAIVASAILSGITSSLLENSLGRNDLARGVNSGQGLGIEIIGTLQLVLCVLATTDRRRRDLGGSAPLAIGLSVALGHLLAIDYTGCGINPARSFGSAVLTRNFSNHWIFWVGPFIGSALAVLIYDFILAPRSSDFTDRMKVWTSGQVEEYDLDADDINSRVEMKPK
The experiment in a line: stopped-flow light scattering water permeability of AQP1-expressing yeast; Cys189Ala variant resistant; reversed by ACC/DTT.

Experiment [2] addresses T2, AQP9 (Homo sapiens, UniProt O43315, C213A).
T2 sequence (O43315 1-295 C213A): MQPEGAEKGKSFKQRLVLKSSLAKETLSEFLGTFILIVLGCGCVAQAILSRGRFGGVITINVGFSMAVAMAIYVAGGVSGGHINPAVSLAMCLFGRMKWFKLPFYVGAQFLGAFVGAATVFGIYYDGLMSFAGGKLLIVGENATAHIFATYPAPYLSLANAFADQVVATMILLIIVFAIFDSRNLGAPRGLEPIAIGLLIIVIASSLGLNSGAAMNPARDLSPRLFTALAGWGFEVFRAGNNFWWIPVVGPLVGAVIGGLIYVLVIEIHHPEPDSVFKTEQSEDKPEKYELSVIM
Briefly: stopped-flow light scattering water and glycerol permeability of AQP9 Cys213Ala-expressing yeast at […].

Experiment [3] deals with T3, AQP9 (Homo sapiens, UniProt O43315).
T3 sequence (O43315 1-295): T2 sequence (O43315 1-295 C213A) with A213C
The experiment in a line: stopped-flow light scattering water and glycerol permeability of AQP9-expressing yeast at […].

The target of experiment [4] is T1, AQP1. Briefly: stopped-flow light scattering water permeability of AQP1-expressing yeast at […] (marginal effect); Cys189Ala variant resistant.
In experiment [5] the target is T1, AQP1. The experiment in a line: stopped-flow light scattering water permeability of AQP1-expressing yeast at […]; Cys189Ala variant resistant.
The target in experiment [6] is T2, AQP9. The experiment in a line: stopped-flow light scattering water and glycerol permeability of AQP9 Cys213Ala-expressing yeast at […]. The source holds these as a separate data set.
Experiment [7] deals with T3, AQP9. The experiment in a line: stopped-flow light scattering water and glycerol permeability of AQP9-expressing yeast at […]. The source holds these as a separate data set.

Each structure is given as a SMILES string. Positions count from the first letter of the chain named. Where two headings read alike, the source gives them in different places.

The term IC50 denotes the point on the concentration scale where inhibition reaches its midpoint. `CS(=O)(=O)SCc1ccccc1` [BMTS]: the IC50 on AQP1 [1] came to 111 ± 3 µM. Besides, the “stopped-flow light scattering water and glycerol permeability of AQP9 Cys213Ala-” value on AQP9 [2] is “The water permeability of AQP9 Cys213Ala was still inhibited to the same degree as that of the wildtype protein”. Moreover, on AQP9 [3], the “stopped-flow light scattering water and glycerol permeability of AQP9-expressing” value is “AQP9 water and glycerol permeability were strongly inhibited by BMTS and pCMBS”.
On to `CSS(C)(=O)=O` [MMTS], for which, at AQP1 [4], the “stopped-flow light scattering water permeability of AQP1-expressing yeast at 1 m” value is on record as “the transfer of a small S-methyl from MMTS had a marginal effect on the water permeability”.
In the case of `CCCSS(C)(=O)=O` [PMTS], the “stopped-flow light scattering water permeability of AQP1-expressing yeast at 1 m” value on AQP1 [5] is “modification with S-n-propyl from PMTS conferred intermediate inhibition”.
`O=S(=O)([O-])c1cc[c]([Hg][Cl])cc1` [pCMBS]: the “stopped-flow light scattering water and glycerol permeability of AQP9 Cys213Ala-” value at AQP9 [6] is “treatment of AQP9 Cys213Ala with BMTS or pCMBS failed to generate full resistance to the Cys-modifying agents”. On AQP9 [7], the “stopped-flow light scattering water and glycerol permeability of AQP9-expressing” value was “AQP9 water and glycerol permeability were strongly inhibited by BMTS and pCMBS”.
